Data from patent US12629424B2, “Targeting Pleckstrin-2 for treating cancer” (Northwestern University, priority 2018, dated 2026).
pIC50, pKd: −log10 of the molar value. Values belong to the compound of their own block, whether it stands above or below them.

How the values were obtained:
[1] = target: T1, GST-Plek2 (Homo sapiens, UniProt Q9NYT0); test: isothermal titration calorimetry (ITC) of NUP-17d and its enantiomers with Plek2; assay type: binding; conditions: PBS with 0.5% DMSO, 200 μM compound into 20 μM GST-Plek2; for pKd: FIG. 17, general method: MicroCal ITC200, 25° C
T1 construct: made in house
T1 sequence (Q9NYT0 1-353): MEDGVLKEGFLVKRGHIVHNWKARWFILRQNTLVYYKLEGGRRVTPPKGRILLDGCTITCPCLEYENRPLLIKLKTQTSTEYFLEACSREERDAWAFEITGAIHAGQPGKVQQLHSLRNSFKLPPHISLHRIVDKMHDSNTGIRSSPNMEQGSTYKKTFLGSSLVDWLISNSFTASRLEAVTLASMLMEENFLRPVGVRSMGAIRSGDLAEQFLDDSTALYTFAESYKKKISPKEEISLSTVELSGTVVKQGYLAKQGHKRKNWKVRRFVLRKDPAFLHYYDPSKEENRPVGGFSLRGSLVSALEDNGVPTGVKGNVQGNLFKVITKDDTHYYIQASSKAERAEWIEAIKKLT
Procedure: (§1) FIG. 4. NUP-17 directly targets and binds to Plek2. (A) Plek2 was overexpressed in mouse fetal liver Ter119 negative erythroblasts. NUP-17 (40 μM) were added in the control cells and Plek2 overexpressed cells. Cell number was calculated 48 hours after culture. (B) Plek2 was overexpressed in Cos-7 cells. Phalloidin 647 was used to stain actin in the indicated cells. 10 μM of NUP-17 was used. (C) Quantitative analysis of B. (D) ITC experiments using the microCal ITC200 instrument. 200 μM NUP-17 was titrated into a solution of 20 μM GST control or GST-Plek2. *P<0.05; *** P<0.001. 17 represents NUP-17.
(§2) FIG. 17. Isothermal titration calorimetry (ITC) experiments of NUP-17d and its enantiomers. -17-d: delta H=−1.9 kcal/mol delta S=+22.9 cal/molK; -17-1b: delta H=−2.2 kcal/mol delta S=+22.8 cal/molK; -17-2b: delta H=−1.5 kcal/mol delta S=+24.3 cal/molK; -17-1a: delta H=−5.3 kcal/mol delta S=+7.3 cal/molK; and -17-2a: delta H=−4.2 kcal/mol delta S=+13.9 cal/molK.
(§3) To confirm that the inhibitory effect of NUP-17 on the proliferation and differentiation of fetal liver erythroid cells is due to Plek2 binding, we overexpressed Plek2 in the fetal liver cells and treated the cells with NUP-17. […] In addition, we also overexpressed Plek2 in Cos-7 cells, which induced prominent lamellipodia formation as previously reported (13).
Biophysical Assays and Counter-Screening. To confirm the interaction of the optimized compounds with Plek2, we will perform isothermal calorimetry (ITC) using the recombinant protein GST-Plek2 or Flag-tagged Plek2 we have produced. Specifically, MicroCal ITC200 instrument (GE Healthcare) with the jacket temperature will set at 25° C. The protein and our compound solutions will be prepared in PBS with 0.5% DMSO. Titrations of 200 μM compound into 20 μM GST-Plek2 solutions will be sufficient for 15 injections of 2.5 μl each with 120 seconds spacing between injections and a mixing speed at 900 rpm. An initial 0.1 μl injection will subsequently be removed during data analysis. A control experiment will be performed by titrating 200 μM compound into a solution of 20 μM GST. […]

[2] = target: T1, GST-Plek2; test: Isothermal titration calorimetry (ITC) binding to GST-tagged Plek2; conditions: FIG. 17
Procedure: as §1, §2, §3
Biophysical Assays and Counter-Screening. […]

[3] = target: T2, Plek2 (Homo sapiens, UniProt Q9NYT0); test: Plek2-lipid binding (protein-lipid overlay); conditions: data not shown
T2 construct: we examined the ability of full-length protein to adhere to various phospholipids
T2 sequence (Q9NYT0 1-353): T1 sequence (Q9NYT0 1-353)
Procedure: (§4) FIG. 7. Plek2 binds to PtdIns(3,4)P2 and is critical for the PI3K signaling pathway. […] (B) Plek2 membrane association and cell spreading are PI3K dependent. Jurkat cells expressing GFP fused to the amino-terminus of wild-type Plek2 were plated on fibronectin. Real-time confocal imaging of live cells was performed. Shown is a cell expressing Plek2 before and after inhibition of PI3K with 100 nM wortmannin. (C) Bone marrow lineage negative cells from the indicated mice were treated with 2 units erythropoietin for the indicated amount of time (minutes). The level of Phospho-Akt and total Akt were analysis by Western blot assays. (D) Same as C except wild type bone marrow cells were used. 10 μM NUP-17d was used. The levels of the indicated proteins were analyzed by Western blot assays. (E) Kaplan-Meier survival analysis of indicated mice. Ptenfl/fl mice were crossed with Mx-Cre and Plek2 whole body knockout mice. The deletion of Pten in the hematopoietic tissues was induced by poly-IC injection. N=5 in each group. P=0.0067 between Ptenfl/flMx-Cre and Ptenfl/flMx-Cre, Plek2 KO. (F) Hematoxylin and eosin stain of the lungs from representative mice in E. Scale bar: 100 μm.
Rationale and Preliminary Data. […] To define the lipid binding specificity of Plek2, we examined the ability of full-length protein to adhere to various phospholipids.

[4] = tested on: phosphorylation of Akt; test: Akt phosphorylation in erythropoietin-treated bone marrow lineage negative cells (Western blot); assay type: cell-based, mouse; conditions: wild type bone marrow lineage negative cells, 10 μM
Procedure: as §4
To further determine the role of Plek2 in PI3K pathway, we overexpressed GFP-fusion Plek2 in Jurkat cells. […]

[5] = tested on: JAK2V617F knockin mice; test: JAK2V617F knockin MPN mouse model; assay type: in vivo; conditions: 25 mg/kg once every two days, one month
Procedure: FIG. 15A and FIG. 15B. Compound NUP-17d ameliorates myeloproliferation and thrombosis in JAK2^V617F knockin mice. FIG. 15A. RBC and WBC count of indicated mice after NUP-17d treatment. Two-month-old JAK2^V617F knockin mice were treated with NUP-17d once every two days for three weeks. Wild type (WT) littermate control mice were used for comparison *P<0.05; ** P<0.01; *** P<0.001. FIG. 15B. H&E stain of the spleen and lung sections. Inserted panels with high magnification reveal vascular occlusions. Scale bars: 100 μm.
We tested the effects of Plek2 inhibitors in the JAK2^V617F knockin MPN mouse model. (See FIGS. 15A and 15B). The same dosage and dosing schedule of NUP-17d (25 mg/kg, once every two days) were applied to JAK2^V617F knockin mice as those applied to the Epo model. We have treated the mice for one month. […] (See FIG. 15A). […] (See FIG. 15B).

[6] = tested on: Plek2-overexpressed Cos-7 cells; test: Lamellipodia formation assay in Plek2-overexpressed Cos-7 cells (phalloidin actin stain); assay type: cell-based; conditions: 10 μM
Procedure: as §1
FIG. 5. Identification of a potent analog of NUP-17. (A) NUP-17d was analyzed for the inhibitory effects on fetal liver erythroblasts as in FIG. 3. Indicated doses were used. (B) The structure of NUP-17d. (C) Plek2 was overexpressed in Cos-7 cells. Phalloidin 647 was used to stain actin in the indicated cells. 10 μM of NUP-17 and NUP-17d were used. (D) Quantitative analysis of C. **P<0.01; *** P<0.001. 17 and 17d represent NUP-17 and NUP-17d, respectively.
To confirm that the inhibitory effect of NUP-17 on the proliferation and differentiation of fetal liver erythroid cells is due to Plek2 binding, we overexpressed Plek2 in the fetal liver cells and treated the cells with NUP-17. […]

[7] = tested on: mouse fetal liver erythroid progenitors; test: Proliferation of mouse fetal liver erythroid progenitors cultured in erythropoietin containing medium (Plek2 functional screening system); assay type: cell-based; conditions: mouse fetal liver erythroblasts, Epo medium
Procedure: FIG. 3. NUP-17 inhibits Plek2 function in fetal liver erythropoiesis. (A) Mouse Ter119 (a mature erythroid cell marker) negative erythroblasts were purified and cultured for two days (D0-D2). The protein levels of Plek2 and Hsc70 loading control were analyzed by a Western blot assay. (B) The structure of NUP-17. (C-D) The proliferation and enucleation (DNA negative) profiles of cells from A treated with different concentration of NUP-17 for 48 hours. (E) Simulated Plek2 DEP domain interaction with NUP-17 using Schrodinger software. Amino acids that are potentially critical for the interaction are highlighted in yellow. *P<0.05; ** P<0.01; *** P<0.001.
as §1, with “200 μM NUP-17 was titrated into a solution of 20 μM GST control or GST-Plek2. *P<0.05; *** P<0.001. 17 represents NUP-17.” left out
FIG. 5. […] (A) NUP-17d was analyzed for the inhibitory effects on fetal liver erythroblasts as in FIG. 3. […] (D) Quantitative analysis of C. **P<0.01; *** P<0.001. […]
FIG. 11. […] Analogs of NUP-17d were analyzed for their effect on fetal liver erythroblast proliferation as in FIG. 3. […]

[8] = tested on: Epo-induced myeloproliferation in wild-type mice; test: Erythropoietin (Epo) injection mouse model; assay type: in vivo
[9] = 40 mg/kg every 2 days for 8 days

Kd ([1]; FIG. 17, value printed in uM, general method: MicroCal ITC200, 25° C): 2.12 µM
SMILES: CN1CCN([C@H](c2ccc(Cl)cc2)[C@@H](O)C(=O)c2c[nH]c3ccccc23)CC1 [17d-1a]

pKd [1]: 6.45
SMILES: CN1CCN([C@@H](c2ccc(Cl)cc2)[C@H](O)C(=O)c2c[nH]c3ccccc23)CC1 [17d-1b]

SMILES: CN1CCN(C(c2ccc(Cl)cc2)C(O)C(=O)c2c[nH]c3ccccc23)CC1 (stereo not shown) [17d]
pKd [1]: 6.40

SMILES: CN1CCN(C(c2ccc(Cl)cc2)C(O)C(=O)c2c[nH]c3ccccc23)CC1 (stereo not shown) [NUP-17d]
ITC delta H [2]: -1.9 kcal/mol
ITC delta S [2]: +22.9 cal/molK
disruption of Plek2-lipid binding [3]: did not disrupt Plek2-lipid binding
phosphorylation of Akt [4]: significantly inhibited
WBC count [5]: largely normalized
red blood cell count [5]: significantly reduced
side effects with the treatment [5]: no gross side effects
spleen size and extramedullary erythropoiesis [5]: markedly reduced
vascular occlusions in the lungs [5]: dramatically ameliorated
reversal of lamellipodia in Plek2 overexpressed Cos-7 cells [6]: more potent inhibition
pIC50 [7]: > 5.00
Epo-induced erythrocytosis in spleen red pulp and lung vasculature (histology) [8, 9]: markedly ameliorated
Epo-induced leukocytosis [8, 9]: significantly reduced
Epo-induced reticulocytosis [8, 9]: significantly reduced
Epo-induced splenomegaly [8, 9]: significantly reduced
Epo-induced vascular occlusions [8, 9]: significantly reduced
tolerability ([8]; 40 mg/kg, 2 days, preliminary studies): well-tolerated
red blood cell count ([8]; Epo 5,000 U/kg every 2 days, compound 40 mg/kg every 2 days for 8 days, 3 weeks): did not significantly reduce
hematologic or other abnormalities in treated mice ([8]; during the experiments): no hematologic or other abnormalities
